The values that follow come from patent US20190167640A1, “METHODS FOR TREATMENT OF MUSCULAR DYSTROPHIES” (Akashi Therapeutics, Inc., priority 2013, published 2019).

Entries after “also recorded” stand apart in the source; their conditions may differ.

Test [1] relates to diaphragm strips of exercised mdx mice. Kind of test: Isometric contraction of diaphragm strips after in vivo treatment. The following applies: for twitch tension of diaphragm strips: exercised mdx mice, Compound (I) 30 mg/kg s.c., nandrolone 5 mg/kg s.c., PDN 1 mg/kg i.p., 6 days/week, 4-6 weeks; for fatigue of diaphragm (drop of force after 5 repetitive tetani) / tetanic force of diaphragm: same treatments; for fatigue of diaphragm (drop of force after 5 repetitive tetani): 5 tetani at 100 Hz, 5 sec intervals; for tetanic force of diaphragm: vehicle-treated exercised mdx groups pooled together (FIG. 2B). As to the method: Compound (I) and nandrolone were dissolved in 10% Ethanol/90% Corn Oil (Sigma-Aldrich) in order to have the final dosage needed in the volume of 0.1 ml/10 g body weight. PDN (from the commercial formulation URBASON) was diluted sterile water for injection (0.1 ml/10 g body weight). 40 mdx mice 5-6 weeks old (Charles River Italy for Jackson Lab) were first (at the beginning of the exercise/treatment period (Time 0)) randomized in groups homogeneous for body weight, fore limb strength and normalized force (fore limb strength/body weight), as follows: • 7 SEDENTARY MDX+VEHICLE (ethanol and corn oil) • 7 UNTREATED EXERCISED MDX+VEHICLE (ethanol and corn oil) • 9 EXERCISED MDX+Compound (I) 30 mg/kg • 8 EXERCISED MDX+Nandrolone 5 mg/kg • 3 EXERCISED MDX+VEHICLE (sterile water) • 6 EXERCISED MDX+PDN 1 mg/kg
The duration of the treatment was 4-6 weeks. At the end of 4 weeks, 34 mice remained on the protocol, as follows: • 7 SEDENTARY MDX+VEHICLE (ethanol and corn oil) • 7 UNTREATED EXERCISED MDX+VEHICLE (ethanol and corn oil) • 6 EXERCISED MDX+Compound (I) 30 mg/kg • 5 EXERCISED MDX+Nandrolone 5 mg/kg • 3 EXERCISED MDX+VEHICLE (sterile water) • 6 EXERCISED MDX+PDN 1 mg/kg
(§1) The chronic exercise consisted of 30 min running on horizontal treadmill at 12 m/min twice a week. Drug treatment started one day before the exercise protocol. At least 4 weeks of exercise were performed before starting the ex vivo experiments. In vivo parameters were monitored weekly throughout. Age of the mice at the time of ex-vivo experiments: 9-12 weeks. The effectiveness of the test compounds was then evaluated ex vivo for: • Mechanical properties of EDL muscle and diaphragm strips by isometric contraction • Mechanical threshold of EDL muscle, i.e. the voltage threshold for fiber contraction, as an index of excitation-contraction coupling mechanism and calcium homeostasis (two microelectode “point” voltage clamp method) • Cable parameters and macroscopic ionic conductance (two microelectrode current clamp recordings) • Spectrophotometric determination of plasma level of creatine kinase (CK), as an index of sarcolemmal damage, lactate dehydrogenase (LDH) as an index of metabolic sufferance, reactive oxygen species, as a marker of oxidative stress • Morphometric analysis of gastrocnemious (GC) muscle and diaphragm
Standard isometric contraction measurements on both EDL muscle and diaphragm strips were obtained by electric field stimulation via two axial platinum wires. For each preparation, a preliminary stabilization procedure (for proper temperature equilibration and relaxation after handling) was followed by the determination of the optimal resting length, i.e. the resting tension that allowed the maximal tension to be elicited by 40V depolarizing steps of 0.2ms duration. The preparations were then allowed to rest for about 30 min before starting the recording procedure.
Twitch tension: 5 single twitches elicited by pulses of 40 V and 0.2 ms (every 30 sec)→determination of maximal twitch tension and contraction kinetic (time to peak and half relaxation time);
Force frequency curve: 450 ms trains of 0.2 ms 40V pulses from 10 to 140 Hz→determination of maximal tetanic tension and frequency for half-maximal activation (Hz50) Fatigue: 5 tetani at 100 Hz (450 ms) and 5 sec intervals→determination of % drop of tension

Test [2] concerns EDL myofibers of exercised mdx mice. The experiment in a line: Mechanical threshold of EDL muscle (two microelectrode point voltage clamp). The test is classed as in vivo. To be noted: for mechanical threshold: potential (voltage threshold) for fiber contraction of EDL myofibers: Compound (I) 30 mg/kg, nandrolone 5 mg/kg, PDN 1 mg/kg, 6 days/week, 4 weeks, all pulse durations; for rheobase voltage of EDL muscles / time constant to reach the rheobase, EDL myofibers: same treatments; for rheobase voltage of EDL muscles: calculated from fit of strength-duration curve; for time constant to reach the rheobase, EDL myofibers: from fit of strength-duration curve. As to the method: as §1
Mechanical threshold (MT) is an electrophysiological index of excitation contraction-coupling and of calcium homeostasis (De Luca et al., JPET 2003; Fraysse et al., Neurobiol. Dis., 2004). The application of depolarizing voltage steps of increasing durations shifts the contraction for fiber contraction toward more negative potential until a constant rheobase voltage is reached. The rheobase voltage represents the voltage at which the calcium that is released from the sarcoplasmis reticulum and the calcium reuptaken are at the steady-state. A shift of rheobase voltage toward more negative potential, as occurring in dystrophic mdx EDL myofibers, is indicative of more calcium being available for contraction, either resulting from greater release or slower reuptake or higher basal cytosolic levels.
In FIG. 30A, the data, expressed as the means±S.E.M. from 14 to 30 values from 2 to 5 preparations, show the voltages for the contraction of EDL myofibres (mechanical threshold) at increasing pulse duration in wild-type mice (WT, black circles) and in mdx mice treated with either vehicle (corn oil and water; Mdx+VTOT, white circles), 30 mg/kg Compound (I) (white triangles), 5 mg/kg nandrolone (upside-down black triangles) or 1 mg/kg PDN (white rhombus). The drugs were given 6 days per week. […] For some data points, the standard error bar is not visible because it is smaller than the symbol size. In FIGS. 30B and 30C, the rheobase voltage, in mV and the time constant, in ms, with relative standard errors, have been calculated from the fit of data points of the voltage-duration curves in A. In FIG. 30D, the total resting membrane ionic conductances (gm) in μS/cm^2 of EDL muscle fibres of the same experimental groups described in A are shown. The bars represent the means±SEM from the number of 3-5 prep/25-37 fibres. For each parameter, the significant differences between groups were evaluated using ANOVA for multiple comparisons (F values) and the Bonferroni t-test post hoc correction. Significant differences were found for rheobase voltage (F>4; p<0.003) and gm (F>7; p<0.0002).
In FIG. 31A, the data, expressed as the means±S.E.M. from 27 to 41 values from 3 preparations, show the voltages for the contraction of EDL myofibres (mechanical threshold) at increasing pulse duration in wild type mice (WT, black circles) and in mdx mice treated with either corn oil (Mdx+V1, white circles) or Compound (I) at 0.3 (white square), 3 (black square) or 30 mg/kg (white triangles). The drugs were given 6 days per week. […] For some data points, the standard error bar is not visible because it is smaller than the symbol size. […]

The test system of test [3] is exercised mdx mice. Kind of test: Spectrophotometric determination of plasma creatine kinase, lactate dehydrogenase and reactive oxygen species. The test is classed as in vivo. The following applies: same treatments. As to the method: as §1
A marked elevation of plasma creatine kinase is a typical diagnostic marker of muscular dystrophy. In parallel an increase in lactate dehydrogenase is also observed as a sign of metabolic sufferance while an increase on reactive oxygen species can occur as a result of ongoing oxidative stress. Generally, these biochemical indices are further aggravated by the exercise protocol. However, in the present study all the three parameters CK, LDH and ROS were particularly altered in the sedentary mdx mice and therefore no remarkable effect of exercise was observed.

For test [4], the system named is EDL muscle of exercised mdx mice. Kind of test: Isometric and eccentric contraction of EDL muscle after in vivo treatment. The following applies: same treatments; for fatigue of EDL (drop during the first 5 tetani): tetani at 5 sec intervals.
Test [5] deals with EDL myofibers of exercised mdx mice. Kind of test: Cable parameters and macroscopic ionic conductance of EDL myofibers (two microelectrode current clamp). The test is classed as in vivo. The following applies: Compound (I) 30 mg/kg, nandrolone 5 mg/kg, PDN 1 mg/kg, 6 days/week, 4-6 weeks. How it is done:
as §1
Passive cable properties are calculated for the spatial and temporal changes of membrane potential in response to a hyperpolarizing square current pulses. […]

Test [6] has as its system diaphragm and GC muscle of exercised mdx mice. The experiment in a line: Histology and morphometric analysis of gastrocnemius (GC) muscle and diaphragm. The test is classed as in vivo. The following applies: preliminary morphometric analysis (FIG. 23). How it is done:
as §1
Representative pictures of histology profile of diaphragm and GC muscles in the various experimental conditions are shown in FIG. 22.

Turning to `CN1C(=O)N(c2ccc(C#N)c(C(F)(F)F)c2)C(=O)[C@@]1(CO)c1ccccc1` [Compound (I)], in test [1], the “twitch tension of diaphragm strips” value was “greater than those of untreated ones and no more significantly different with respect to those of weight”; the “fatigue of diaphragm (drop of force after 5 repetitive tetani)” value was “protection was observed”; the “tetanic force of diaphragm” value is “significantly greater than those of untreated, although still lower than weight ones”. In test [2], the “mechanical threshold: potential (voltage threshold) for fiber contraction of EDL myofibers” value (“mechanical threshold: potential” below) was “significant shift of the potential for fiber contraction toward weight values; also recorded: significantly more positive”; the “rheobase voltage of EDL muscles” value is recorded as “almost overlapping that of weight”; the “time constant to reach the rheobase, EDL myofibers” value (“time constant to reach the rheobase” for short) is “remarkably shorter than those of untreated exercised and not significantly different with respect to that of weight”. Besides, the “mechanical threshold: voltage threshold values of EDL myofibres” value in test [2] (Compound (I) at 0.3, 3 or 30 mg/kg, 6 days per week, second study (up to 12 weeks), vs vehicle-treated mdx) is “significantly more positive”. In addition, in test [3], the “lactate dehydrogenase (LDH)” value is listed as “slight, but not significant reduction”. Moreover, in test [4], the “frequency for half-maximal activation (Hz50) of EDL” value (from here on “frequency”) is recorded as “no significant effects” and the “twitch/tetanus ratio of EDL” value is listed as “no effect”. For the same compound, in test [5], the “membrane resistance (Rm) and total membrane ionic conductance (gm) of EDL myofibers” value is “effects comparable to that of PDN”.

Take `C[C@H]1C[C@@H]2[C@H]([C@@H](O)C[C@@]3(C)[C@H]2CC[C@]3(O)C(=O)CO)[C@@]2(C)C=CC(=O)C=C12` [PDN, α-methyl-prednisolone]: in test [6], the “fiber area of both normal and centronucleated fibers” value was “increase”. In addition, in test [1], the “twitch tension of diaphragm strips” value was “the two anabolic compounds exerted a greater protection than PDN”; the “fatigue of diaphragm (drop of force after 5 repetitive tetani)” value is “protection was observed”; the “tetanic force of diaphragm” value is “significantly greater than those of untreated, although still lower than weight ones”. In test [2], the “mechanical threshold: potential” value is reported as “less effective than Compound (I); also recorded: significantly more positive”; the “rheobase voltage of EDL muscles” value is “values intermediate between untreated mdx and weight”; the “time constant to reach the rheobase” value was “effect of Compound (I) on this parameter was greater than that of nandrolone and PDN”. Moreover, in test [3], the “creatine kinase (CK)” value is listed as “lack of effect” and the “lactate dehydrogenase (LDH)” value is listed as “lack of effect”. Also, in test [4], the “frequency” value is given as “no significant effects”, the “twitch/tetanus ratio of EDL” value is given as “slight but not significant decrease” and the “fatigue of EDL (drop during the first 5 tetani)” value is listed as “partial recovery”. Further, the “membrane resistance (Rm) and total membrane ionic conductance (gm) of EDL myofibers” value in test [5] is given as “effect consistent with that observed in previous studies”.

Consider `C[C@]12CC[C@H]3[C@@H](CCC4=CC(=O)CC[C@@H]43)[C@@H]1CC[C@@H]2O` [nandrolone], for which, in test [6], the “fiber area of both normal and centronucleated fibers” value is “increase”. Further, in test [1], the “twitch tension of diaphragm strips” value is “greater than those of untreated ones and no more significantly different with respect to those of weight”; the “tetanic force of diaphragm” value is “significantly greater than those of untreated, although still lower than weight ones”. Further, in test [2], the “mechanical threshold: potential” value is listed as “less effective than Compound (I); also recorded: significantly more positive”; the “rheobase voltage of EDL muscles” value was “values intermediate between untreated mdx and weight”; the “time constant to reach the rheobase” value was “effect of Compound (I) on this parameter was greater than that of nandrolone and PDN”. In test [4], the “frequency” value is given as “no significant effects”, the “twitch tension of EDL” value is listed as “tendency toward an increase”, the “twitch/tetanus ratio of EDL” value is on record as “no effect” and the “fatigue of EDL (drop during the first 5 tetani)” value was “partial recovery”.
